This passage reports class results from patent US20070010671A1, “Novel quinazoline derivatives and methods of treatment related to the use thereof” (priority 2003, published 2007).

This experiment deals with MCH receptor (Homo sapiens, UniProt Q99705). The experiment in a line: High throughput functional screening FLIPR/FDSS6000: inhibition of MCH-evoked intracellular Ca2+ changes. It counts as cell-based. As to conditions: class by percent of control at 10^-7 M or IC50. An outline of the steps:
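Cells expressing a non-endogenous, constitutively active MCH receptor were loaded with 4 μM Fluo4-AM (with probenecid) for 1 hr at 37° C. Test compound was preincubated 3 min at 37° C before 50 nM MCH was added. The [Ca2+]i transient was read at Ex 488/Em 530 nm for 290 s.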

As to `CN(C)c1nc(N[C@H]2CC[C@@H](NC(=S)Nc3ccc(N(C)C)c4ccccc34)CC2)nc2ccccc12` [compound 389, N-[4-(dimethylamino)-1-naphthyl]-N′-(cis-4-{[4-(dimethylamino)quinazolin-2-yl]amino}cyclohexyl)thiourea], the class was 1 (Class 1: The value of percent of control at 10^−7 M was less than 40% or the value of IC50 was less than 50 nM.).

Take `CN(C)c1nc(N[C@H]2CC[C@@H](NC(=S)Nc3cccnc3)CC2)nc2ccccc12` [compound 390]: the class was 3 (Class 3: The value of percent of control at 10^−7 M was more than 60% or the value of IC50 was more than 200 nM.).

As to `CN(C)c1ccc(/N=N/c2ccc(NC(=S)N[C@H]3CC[C@@H](Nc4nc(N(C)C)c5ccccc5n4)CC3)cc2)cc1` [compound 391], the class was 3 (Class 3: The value of percent of control at 10^−7 M was more than 60% or the value of IC50 was more than 200 nM.).

As for `CN(C)c1nc(N[C@H]2CC[C@@H](NC(=S)NCCCN3CCOCC3)CC2)nc2ccccc12` [compound 392], the class was 3 (Class 3: The value of percent of control at 10^−7 M was more than 60% or the value of IC50 was more than 200 nM.).

`CCN(CC)c1ccc(NC(=S)N[C@H]2CC[C@@H](Nc3nc(N(C)C)c4ccccc4n3)CC2)cc1` [compound 393]: the class is reported as 3 (Class 3: The value of percent of control at 10^−7 M was more than 60% or the value of IC50 was more than 200 nM.).

Regarding `CN(C)c1nc(N[C@H]2CC[C@@H](NC(=S)Nc3ccc(/N=N/c4ccccc4)cc3)CC2)nc2ccccc12` [compound 394], the class is reported as 3 (Class 3: The value of percent of control at 10^−7 M was more than 60% or the value of IC50 was more than 200 nM.).

For the molecule `CN(C)c1nc(N[C@H]2CC[C@@H](NC(=S)NCCN3CCCCC3)CC2)nc2ccccc12` [compound 395], the class is 3 (Class 3: The value of percent of control at 10^−7 M was more than 60% or the value of IC50 was more than 200 nM.).

With `CN(C)c1nc(N[C@H]2CC[C@@H](NC(=S)NCc3cccnc3)CC2)nc2ccccc12` [compound 396], the class is reported as 3 (Class 3: The value of percent of control at 10^−7 M was more than 60% or the value of IC50 was more than 200 nM.).

With `CN(C)c1nc(N[C@H]2CC[C@@H](NC(=S)Nc3ccc(-n4cccn4)cc3)CC2)nc2ccccc12` [compound 397], the class is recorded as 3 (Class 3: The value of percent of control at 10^−7 M was more than 60% or the value of IC50 was more than 200 nM.).

On to `CN(C)c1nc(N[C@H]2CC[C@@H](NC(=S)Nc3cccc4nsnc34)CC2)nc2ccccc12` [compound 398], for which the class is reported as 3 (Class 3: The value of percent of control at 10^−7 M was more than 60% or the value of IC50 was more than 200 nM.).

In the case of `CN(C)c1nc(N[C@H]2CC[C@@H](NC(=S)Nc3ccc4nsnc4c3)CC2)nc2ccccc12` [compound 399], the class is given as 3 (Class 3: The value of percent of control at 10^−7 M was more than 60% or the value of IC50 was more than 200 nM.).

As to `Cc1noc(C)c1NC(=S)N[C@H]1CC[C@@H](Nc2nc(N(C)C)c3ccccc3n2)CC1` [compound 400], the class is 3 (Class 3: The value of percent of control at 10^−7 M was more than 60% or the value of IC50 was more than 200 nM.).

With `CN(C)c1nc(N[C@H]2CC[C@@H](NC(=S)Nc3ccc(-c4cnco4)cc3)CC2)nc2ccccc12` [compound 401], the class is recorded as 3 (Class 3: The value of percent of control at 10^−7 M was more than 60% or the value of IC50 was more than 200 nM.).

With `Cc1onc(-c2ccccc2)c1NC(=S)N[C@H]1CC[C@@H](Nc2nc(N(C)C)c3ccccc3n2)CC1` [compound 402, N-(cis-4-{[4-(dimethylamino)quinazolin-2-yl]amino}cyclohexyl)-N′-(5-methyl-3-phenylisoxazol-4-yl)thiourea], the class was 1 (Class 1: The value of percent of control at 10^−7 M was less than 40% or the value of IC50 was less than 50 nM.).

In the case of `CN(C)c1nc(N[C@H]2CC[C@@H](NC(=S)Nc3ccc(N4CCOCC4)nc3)CC2)nc2ccccc12` [compound 403], the class is 3 (Class 3: The value of percent of control at 10^−7 M was more than 60% or the value of IC50 was more than 200 nM.).

As for `CN(C)c1nc(N[C@H]2CC[C@@H](NC(=S)Nc3ccc(Oc4ccccc4)nc3)CC2)nc2ccccc12` [compound 404], the class is 3 (Class 3: The value of percent of control at 10^−7 M was more than 60% or the value of IC50 was more than 200 nM.).

Take `CC(=O)c1cccc(NC(=O)NC[C@H]2CC[C@@H](Nc3nc(N(C)C)c4ccccc4n3)CC2)c1` [compound 405]: the class is 3 (Class 3: The value of percent of control at 10^−7 M was more than 60% or the value of IC50 was more than 200 nM.).

For `CC(=O)c1ccc(NC(=O)NC[C@H]2CC[C@@H](Nc3nc(N(C)C)c4ccccc4n3)CC2)cc1` [compound 407], the class was 3 (Class 3: The value of percent of control at 10^−7 M was more than 60% or the value of IC50 was more than 200 nM.).

Consider `CN(C)c1nc(N[C@H]2CC[C@@H](CNC(=O)NC(=O)c3ccccc3)CC2)nc2ccccc12` [compound 408], for which the class is listed as 3 (Class 3: The value of percent of control at 10^−7 M was more than 60% or the value of IC50 was more than 200 nM.).

As for `CN(C)c1nc(N[C@H]2CC[C@@H](CNC(=O)Nc3cc(C(F)(F)F)cc(C(F)(F)F)c3)CC2)nc2ccccc12` [compound 409], the class is on record as 3 (Class 3: The value of percent of control at 10^−7 M was more than 60% or the value of IC50 was more than 200 nM.).

Take `CN(C)c1nc(N[C@H]2CC[C@@H](CNC(=O)NCc3ccccc3)CC2)nc2ccccc12` [compound 410]: the class is reported as 3 (Class 3: The value of percent of control at 10^−7 M was more than 60% or the value of IC50 was more than 200 nM.).

Take `CN(C)c1nc(N[C@H]2CC[C@@H](CNC(=O)Nc3ccccc3Br)CC2)nc2ccccc12` [compound 411, N-(2-bromophenyl)-N′-[(cis-4-{[4-(dimethylamino)quinazolin-2-yl]amino}cyclohexyl)methyl]urea]: the class is on record as 2 (Class 2: The value of percent of control at 10^−7 M was from 40% to 60% or the value of IC50 was from 50 nM to 200 nM.).

For the molecule `CN(C)c1nc(N[C@H]2CC[C@@H](CNC(=O)Nc3ccccc3-c3ccccc3)CC2)nc2ccccc12` [compound 412, N-biphenyl-2-yl-N′-[(cis-4-{[4-(dimethylamino)quinazolin-2-yl]amino}cyclohexyl)methyl]urea], the class was 2 (Class 2: The value of percent of control at 10^−7 M was from 40% to 60% or the value of IC50 was from 50 nM to 200 nM.).

On to `CN(C)c1nc(N[C@H]2CC[C@@H](CNC(=O)Nc3ccc(Br)cc3)CC2)nc2ccccc12` [compound 413], for which the class is given as 3 (Class 3: The value of percent of control at 10^−7 M was more than 60% or the value of IC50 was more than 200 nM.).

In the case of `CCCCNC(=O)NC[C@H]1CC[C@@H](Nc2nc(N(C)C)c3ccccc3n2)CC1` [compound 414, N-butyl-N′-[(cis-4-{[4-(dimethylamino)quinazolin-2-yl]amino}cyclohexyl)methyl]urea], the class was 2 (Class 2: The value of percent of control at 10^−7 M was from 40% to 60% or the value of IC50 was from 50 nM to 200 nM.).

As to `CN(C)c1nc(N[C@H]2CC[C@@H](CNC(=O)Nc3cccc(Cl)c3)CC2)nc2ccccc12` [compound 415, N-(3-chlorophenyl)-N′-[(cis-4-{[4-(dimethylamino)quinazolin-2-yl]amino}cyclohexyl)methyl]urea], the class is 2 (Class 2: The value of percent of control at 10^−7 M was from 40% to 60% or the value of IC50 was from 50 nM to 200 nM.).

On to `CN(C)c1nc(N[C@H]2CC[C@@H](CNC(=O)Nc3ccc(Cl)cc3)CC2)nc2ccccc12` [compound 416], for which the class is listed as 3 (Class 3: The value of percent of control at 10^−7 M was more than 60% or the value of IC50 was more than 200 nM.).

Turning to `CN(C)c1nc(N[C@H]2CC[C@@H](CNC(=O)NC3CCCCC3)CC2)nc2ccccc12` [compound 417, N-cyclohexyl-N′-[(cis-4-{[4-(dimethylamino)quinazolin-2-yl]amino}cyclohexyl)methyl]urea], the class was 2 (Class 2: The value of percent of control at 10^−7 M was from 40% to 60% or the value of IC50 was from 50 nM to 200 nM.).

As for `CN(C)c1nc(N[C@H]2CC[C@@H](CNC(=O)Nc3cccc(C#N)c3)CC2)nc2ccccc12` [compound 418, N-(3-cyanophenyl)-N′-[(cis-4-{[4-(dimethylamino)quinazolin-2-yl]amino}cyclohexyl)methyl]urea], the class is reported as 2 (Class 2: The value of percent of control at 10^−7 M was from 40% to 60% or the value of IC50 was from 50 nM to 200 nM.).

In the case of `CN(C)c1nc(N[C@H]2CC[C@@H](CNC(=O)Nc3ccccc3Cl)CC2)nc2ccccc12` [compound 419, N-(2-chlorophenyl)-N′-[(cis-4-{[4-(dimethylamino)quinazolin-2-yl]amino}cyclohexyl)methyl]urea], the class is listed as 1 (Class 1: The value of percent of control at 10^−7 M was less than 40% or the value of IC50 was less than 50 nM.).

`Cc1cccc(C)c1NC(=O)NC[C@H]1CC[C@@H](Nc2nc(N(C)C)c3ccccc3n2)CC1` [compound 420, N-[(cis-4-{[4-(dimethylamino)quinazolin-2-yl]amino}cyclohexyl)methyl]-N′-(2,6-dimethylphenyl)urea]: the class was 1 (Class 1: The value of percent of control at 10^−7 M was less than 40% or the value of IC50 was less than 50 nM.).

`CN(C)c1nc(N[C@H]2CC[C@@H](CNC(=O)Nc3ccc(Cl)c(Cl)c3)CC2)nc2ccccc12` [compound 421, N-(3,4-dichlorophenyl)-N′-[(cis-4-{[4-(dimethylamino)quinazolin-2-yl]amino}cyclohexyl)methyl]urea]: the class was 2 (Class 2: The value of percent of control at 10^−7 M was from 40% to 60% or the value of IC50 was from 50 nM to 200 nM.).
